Measured values from patent US10941158B2, “Pyrazole ACC inhibitors and uses thereof” (Gilead Apollo, LLC, priority 2015, dated 2021).
Values after ≈ are worked out from the molar mass of the structure shown. Read-outs that look alike come from different tables or passages of the source.

Tests used:
[1] = system: Fusarium virguliforme (Fv); test: Growth inhibition assay of fungal pathogens; type: cell-based; conditions: 48 h
Method in brief: (§1)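 Compounds in DMSO tested at final 50, 10, 2 ppm or 2, 0.4, 0.08 ppm. Spores in 17% V8 medium, or 1.5 mm mycelial plugs in ¼ PDB for R. solani, incubated with compound. OD600 and visual ratings at 48 h versus 2% DMSO control gave percent growth inhibition.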

Septoria tritici (St) = test: Growth inhibition assay of fungal pathogens; type: cell-based; conditions: for IC90: Zymoseptoria tritici, read-out: Concentration at 90% Inhibition St
Method in brief: as §1

Rhizoctonia solani (Rs) = test: Growth inhibition assay of fungal pathogens; type: cell-based; conditions: 48 h, read-out: Concentration at 90% Inhibition Rs
Method in brief: (§2)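 OD600 (blank-subtracted) plus visual scoring at 48 h, vs 2% DMSO ctrl → % inhibition. Final cpd 50/10/2 or 2/0.4/0.08 ppm. Fm/Bc/Dm spores in 17% V8 broth; Rs as 1.5 mm plugs in ¼ PDB.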

[2] = system: Collectotrichum graminicola (Cg); test: Growth inhibition assay of fungal pathogens; type: cell-based; conditions: 48 h, read-out: Concentration at 90% Inhibition Cg
Method in brief: as §1

Botrtyis cinerea (Bc) = test: Growth inhibition assay of fungal pathogens; type: cell-based; conditions: 48 h, read-out: Concentration at 90% Inhibition Bc
Method in brief: as §2

[3] = system: Fusarium moniliforme (Fm); test: Growth inhibition assay of fungal pathogens; type: cell-based; conditions: for IC90: Fusarium verticillioides, 48 h, read-out: Concentration at 90% Inhibition Fm
Method in brief: as §2

Diplodia maydis (Dm) = test: Growth inhibition assay of fungal pathogens; type: cell-based; conditions: Stenocarpella maydis, 48 h, read-out: Concentration at 90% Inhibition Dm
Method in brief: as §2

[4] = system: Phytophthora capsici (Pc); test: Growth inhibition assay of fungal pathogens; type: cell-based; conditions: for IC90: Phytophthora capsici, read-out: Concentration at 90% Inhibition Pc
Method in brief: as §1

C. albicans ATCC 90028 = test: Anti-Fungal (Candida) Activity Assay, broth microtiter MIC; type: cell-based; conditions: read-out: MIC C. albicans ATCC 90028
Method in brief: (§3)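 Following CLSI M27-A3 broth microdilution, direct colony suspensions in RPMI 1640+MOPS were challenged with compounds. MICs were read visually against the growth control after 48 h.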

[5] = system: C. parapsilosis ATCC 22019; test: as above; type: cell-based; conditions: Lodderomyces parapsilosis, read-out: MIC C. parapsilosis ATCC 22019
Method in brief: as §3

C. krusei ATCC 6258 = test: as above; type: cell-based; conditions: Pichia kudriavzevii, read-out: MIC C. krusei ATCC 6258
Method in brief: as §3

human (hACC2) ACC2 = human (hACC2) ACC2 (Homo sapiens, UniProt O00763); test: In vitro Acetyl-CoA Carboxylase (ACC) inhibition assay (ADP-Glo), hACC2; type: biochemical
Procedure: The detailed procedure is as follows. […] 10 μL ADP glo reagent was added. […] 20 μL kinase detection reagent was added.
“NA” stands for “not assayed.”

[6] = Table 4a, 48 hours, read-out: Concentration at 90% Inhibition Fv
[7] = Table 4b, 48 hours, read-out: Concentration at 90% Inhibition Fv
[8] = ATCC90028, 3 replicates, MIC recorded at 48 h
[9] = ATCC22019, 3 replicates, MIC recorded at 48 h
[10] = ATCC6258, 3 replicates, MIC recorded at 48 h
[11] = read-out: Concentration at 90% Inhibition Fv, Table 4a, 48 hours
[12] = read-out: Concentration at 90% Inhibition Fv, Table 4b, 48 hours

Sequence of human (hACC2) ACC2 (O00763 whole entry): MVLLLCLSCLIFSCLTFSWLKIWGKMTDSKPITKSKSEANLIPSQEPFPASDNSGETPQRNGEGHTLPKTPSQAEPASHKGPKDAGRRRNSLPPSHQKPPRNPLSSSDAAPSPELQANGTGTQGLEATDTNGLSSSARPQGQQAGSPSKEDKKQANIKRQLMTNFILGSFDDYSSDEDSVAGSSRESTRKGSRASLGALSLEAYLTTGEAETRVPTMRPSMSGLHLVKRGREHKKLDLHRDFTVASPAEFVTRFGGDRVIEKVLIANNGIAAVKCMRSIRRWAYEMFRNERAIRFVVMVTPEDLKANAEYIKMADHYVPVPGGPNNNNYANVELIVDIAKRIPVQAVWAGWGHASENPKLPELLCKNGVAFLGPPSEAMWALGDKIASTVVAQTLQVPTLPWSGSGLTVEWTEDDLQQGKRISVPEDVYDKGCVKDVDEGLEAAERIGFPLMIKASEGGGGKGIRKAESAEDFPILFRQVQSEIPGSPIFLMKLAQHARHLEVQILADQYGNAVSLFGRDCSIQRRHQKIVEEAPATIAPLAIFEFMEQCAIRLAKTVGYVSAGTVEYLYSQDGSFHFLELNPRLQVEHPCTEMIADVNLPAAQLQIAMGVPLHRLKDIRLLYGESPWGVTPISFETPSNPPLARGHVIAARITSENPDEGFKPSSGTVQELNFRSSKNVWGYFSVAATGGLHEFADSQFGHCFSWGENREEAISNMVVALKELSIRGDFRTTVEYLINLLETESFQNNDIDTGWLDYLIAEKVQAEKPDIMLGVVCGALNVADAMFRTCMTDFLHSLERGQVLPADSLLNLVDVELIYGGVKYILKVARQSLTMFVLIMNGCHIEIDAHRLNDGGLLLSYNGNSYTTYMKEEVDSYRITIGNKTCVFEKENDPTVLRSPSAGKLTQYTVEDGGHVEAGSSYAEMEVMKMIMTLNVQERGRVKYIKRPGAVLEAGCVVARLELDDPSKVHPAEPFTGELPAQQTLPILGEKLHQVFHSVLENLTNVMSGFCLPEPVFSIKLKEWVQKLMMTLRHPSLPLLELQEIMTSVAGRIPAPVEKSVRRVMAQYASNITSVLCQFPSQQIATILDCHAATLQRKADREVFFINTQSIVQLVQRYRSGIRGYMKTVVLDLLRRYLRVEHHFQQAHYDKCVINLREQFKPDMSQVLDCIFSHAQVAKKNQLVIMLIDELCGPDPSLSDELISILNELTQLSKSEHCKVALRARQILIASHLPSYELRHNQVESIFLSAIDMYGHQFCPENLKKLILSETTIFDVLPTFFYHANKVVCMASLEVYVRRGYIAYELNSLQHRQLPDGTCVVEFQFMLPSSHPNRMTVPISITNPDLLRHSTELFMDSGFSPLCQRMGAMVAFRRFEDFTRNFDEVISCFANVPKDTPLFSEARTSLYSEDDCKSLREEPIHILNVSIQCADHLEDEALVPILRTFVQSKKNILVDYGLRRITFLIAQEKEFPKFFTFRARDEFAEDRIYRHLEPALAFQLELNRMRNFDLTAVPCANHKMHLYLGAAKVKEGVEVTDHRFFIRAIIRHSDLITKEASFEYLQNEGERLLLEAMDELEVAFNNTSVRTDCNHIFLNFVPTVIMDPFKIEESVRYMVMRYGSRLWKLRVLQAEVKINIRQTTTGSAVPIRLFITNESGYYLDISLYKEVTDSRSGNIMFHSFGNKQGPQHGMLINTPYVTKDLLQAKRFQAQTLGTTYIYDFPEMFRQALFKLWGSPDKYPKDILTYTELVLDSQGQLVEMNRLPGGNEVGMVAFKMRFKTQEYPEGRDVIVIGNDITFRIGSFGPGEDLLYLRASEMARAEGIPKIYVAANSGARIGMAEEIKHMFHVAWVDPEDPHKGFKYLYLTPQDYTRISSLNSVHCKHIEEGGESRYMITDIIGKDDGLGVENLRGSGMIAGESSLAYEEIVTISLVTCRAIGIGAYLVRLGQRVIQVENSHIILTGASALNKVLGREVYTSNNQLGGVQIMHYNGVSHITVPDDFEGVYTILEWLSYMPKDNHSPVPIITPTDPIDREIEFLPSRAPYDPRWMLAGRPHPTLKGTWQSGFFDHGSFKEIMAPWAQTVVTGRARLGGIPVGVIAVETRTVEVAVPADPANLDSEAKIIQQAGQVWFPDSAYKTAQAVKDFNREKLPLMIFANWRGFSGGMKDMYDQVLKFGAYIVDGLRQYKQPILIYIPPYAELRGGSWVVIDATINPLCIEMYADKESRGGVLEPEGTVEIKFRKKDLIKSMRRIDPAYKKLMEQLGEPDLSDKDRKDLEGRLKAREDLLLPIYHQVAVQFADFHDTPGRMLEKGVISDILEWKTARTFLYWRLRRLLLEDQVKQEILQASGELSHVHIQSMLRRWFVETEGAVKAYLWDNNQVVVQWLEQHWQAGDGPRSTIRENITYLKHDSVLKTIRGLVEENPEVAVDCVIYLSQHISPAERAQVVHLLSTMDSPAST

Row | Structure (SMILES) | IC90 (Rhizoctonia solani (Rs); Table 4a) | IC90 (Rhizoctonia solani (Rs); Table 4b) | IC90 ([2]; Table 4a) | IC90 ([2]; Table 4b) | IC90 (Botrtyis cinerea (Bc); Table 4a) | IC90 (Botrtyis cinerea (Bc); Table 4b) | IC90 (Diplodia maydis (Dm); Table 4a) | IC90 (Diplodia maydis (Dm); Table 4b) | IC50 (human (hACC2) ACC2) | IC90 [1, 11] | IC90 [1, 12] | IC90 (Septoria tritici (St); 48 h, Table 4a) | IC90 (Septoria tritici (St); 48 h, Table 4b) | IC90 [3] | Concentration at 90% Inhibition Fm ([3]; Table 4b, 48 hours) | IC90 ([4]; 48 h, Table 4a) | IC90 ([4]; 48 h, Table 4b) | MIC (C. albicans ATCC 90028; ATCC90028, 48 h) | MIC ([5]; ATCC22019, 48 h) | MIC (C. krusei ATCC 6258; ATCC6258, 48 h) | other results
1 | COc1ccc(F)cc1[C@H](Cn1c(=O)n(C(C)(C)C(=O)NC(C)C)c(=O)c2c(C)c(-n3cccn3)sc21)O[C@H]1CC[C@@H](O)CC1 [Compound I-14, 2-(1-((R)-2-(5-fluoro-2-methoxyphenyl)-2-(((1s,4S)-4-hydroxycyclohexyl)oxy)ethyl)-5-methyl-2,4-dioxo-6-(1H-pyrazol-1-yl)-1,4-dihydro-thieno[2,3-d]pyrimidin-3(2H)-yl)-N-isopropyl-2-methylpropanamide] | 2 µg/mL (≈ 3.12 µM) | 2 µg/mL (≈ 3.12 µM) | > 50 µg/mL | > 50 µg/mL | 0.4 µg/mL (≈ 0.623 µM) | 0.4 µg/mL (≈ 0.623 µM) | 2 µg/mL (≈ 3.12 µM) | 2 µg/mL (≈ 3.12 µM) | 0.003 to 0.01 µM |  |  |  |  |  |  |  |  |  |  |  | IC90 [1, 6]: 2 µg/mL (≈ 3.12 µM); IC90 [1, 7]: 2 µg/mL (≈ 3.12 µM); Concentration at 90% Inhibition St (Septoria tritici (St); Table 4b, 48 hours): D (“D” provided a compound concentration of >50 ppm at 90% inhibition of fungal pathogens); IC90 (Septoria tritici (St); Table 4a, 48 hours): > 50 µg/mL; IC90 ([3]; Table 4a, 48 hours): 0.08 µg/mL (≈ 0.125 µM); IC90 ([3]; Table 4b, 48 hours): 0.08 µg/mL (≈ 0.125 µM); IC90 ([4]; Table 4a, 48 hours): > 50 µg/mL; Concentration at 90% Inhibition Pc ([4]; Table 4b, 48 hours): D (“D” provided a compound concentration of >50 ppm at 90% inhibition of fungal pathogens); MIC (C. albicans ATCC 90028; [8]): 0.25 to 1 µg/mL (≈ 0.39 to 1.56 µM); MIC [5, 9]: 0.25 to 1 µg/mL (≈ 0.39 to 1.56 µM); MIC (C. krusei ATCC 6258; [10]): 1.1 to 2 µg/mL (≈ 1.71 to 3.12 µM)
2 | COc1ccccc1[C@H](Cn1c(=O)n(C(C)(C)C(=O)N2CCCCC2)c(=O)c2c(C)c(-n3cccn3)sc21)OCC(C)C [Compound I-23, (R)-1-(2-isobutoxy-2-(2-methoxyphenyl)ethyl)-5-methyl-3-(2-methyl-1-oxo-1-(piperidin-1-yl)propan-2-yl)-6-(1H-pyrazol-1-yl)thieno[2,3-d]pyrimidine-2,4(1H,3H)-dione] | > 50 µg/mL | > 50 µg/mL | > 50 µg/mL | 10 µg/mL (≈ 16.5 µM) | 2 µg/mL (≈ 3.29 µM) | 2 µg/mL (≈ 3.29 µM) | 10 µg/mL (≈ 16.5 µM) | 2 µg/mL (≈ 3.29 µM) | 0.01 to 0.04 µM | > 50 µg/mL | > 50 µg/mL | > 50 µg/mL | > 50 µg/mL | 0.4 µg/mL (≈ 0.658 µM) | A (“A” provided a compound concentration of 0.4 ppm at 90% inhibition of fungal pathogens) | > 50 µg/mL | > 50 µg/mL | 0.25 to 1 µg/mL (≈ 0.411 to 1.65 µM) | 1.1 to 2 µg/mL (≈ 1.81 to 3.29 µM) | 0.25 to 1 µg/mL (≈ 0.411 to 1.65 µM) | 
3 | COc1ccccc1[C@H](Cn1c(=O)n(C(C)(C)C(=O)N2CCCCC2)c(=O)c2c(C)c(-n3cccn3)sc21)OC(C)C [Compound I-19, (R)-1-(2-isopropoxy-2-(2-methoxyphenyl)ethyl)-5-methyl-3-(2-methyl-1-oxo-1-(piperidin-1-yl)propan-2-yl)-6-(H-pyrazol-1-yl)thieno[2,3-d]pyrimidine-2,4(1H,3H)-dione] | 2 µg/mL (≈ 3.37 µM) | 2 µg/mL (≈ 3.37 µM) | 10 µg/mL (≈ 16.8 µM) | 2 µg/mL (≈ 3.37 µM) | 0.4 µg/mL (≈ 0.674 µM) | 0.4 µg/mL (≈ 0.674 µM) | 2 µg/mL (≈ 3.37 µM) | 2 µg/mL (≈ 3.37 µM) | 0.01 to 0.04 µM | 0.4 µg/mL (≈ 0.674 µM) | 0.4 µg/mL (≈ 0.674 µM) | > 50 µg/mL | > 50 µg/mL | 0.08 µg/mL (≈ 0.135 µM) | AA (“AA” provided a compound concentration of 0.08 ppm at 90% inhibition of fungal pathogens) | > 50 µg/mL | > 50 µg/mL | > 4.1 µg/mL | > 4.1 µg/mL | 2.1 to 4 µg/mL (≈ 3.54 to 6.74 µM) | 
4 | COc1ccccc1[C@H](Cn1c(=O)n(C(C)(C)C(=O)NC(C)C)c(=O)c2c(C)c(-n3cccn3)sc21)OCC(C)C [Compound I-21, (R)-2-(1-(2-isobutoxy-2-(2-methoxyphenyl)ethyl)-5-methyl-2,4-dioxo-6-(1H-pyrazol-1-yl)-1,4-dihydrothieno[2,3-d]pyrimidin-3(2H)-yl)-N-isopropyl-2-methylpropanamide] | 2 µg/mL (≈ 3.44 µM) | 2 µg/mL (≈ 3.44 µM) | > 50 µg/mL | 10 µg/mL (≈ 17.2 µM) | 2 µg/mL (≈ 3.44 µM) | 2 µg/mL (≈ 3.44 µM) | 10 µg/mL (≈ 17.2 µM) | 2 µg/mL (≈ 3.44 µM) | 0.01 to 0.04 µM | > 50 µg/mL | 10 µg/mL (≈ 17.2 µM) | > 50 µg/mL | > 50 µg/mL | 0.4 µg/mL (≈ 0.688 µM) | A (“A” provided a compound concentration of 0.4 ppm at 90% inhibition of fungal pathogens) | > 50 µg/mL | > 50 µg/mL | 0.25 to 1 µg/mL (≈ 0.43 to 1.72 µM) | 0.25 to 1 µg/mL (≈ 0.43 to 1.72 µM) | 0.25 to 1 µg/mL (≈ 0.43 to 1.72 µM) | 
5 | COc1ccc(F)cc1[C@H](Cn1c(=O)n(C(C)(C)C(=O)N2CCOCC2)c(=O)c2c(C)c(-n3cccn3)sc21)OC(C)C [Compound I-3, (R)-1-(2-(5-fluoro-2-methoxyphenyl)-2-isopropoxyethyl)-5-methyl-3-(2-methyl-1-morpholino-1-oxopropan-2-yl)-6-(1H-pyrazol-1-yl)thieno[2,3-d]pyrimidine-2,4(1H,3H)-dione] | > 50 µg/mL | > 50 µg/mL | > 50 µg/mL | > 50 µg/mL | > 50 µg/mL | 10 µg/mL (≈ 16.3 µM) | > 50 µg/mL | 10 µg/mL (≈ 16.3 µM) | 0.01 to 0.04 µM |  |  |  |  |  |  |  |  |  |  |  | IC90 [1, 6]: 2 µg/mL (≈ 3.26 µM); IC90 [1, 7]: 2 µg/mL (≈ 3.26 µM); Concentration at 90% Inhibition St (Septoria tritici (St); Table 4b, 48 hours): D (“D” provided a compound concentration of >50 ppm at 90% inhibition of fungal pathogens); IC90 (Septoria tritici (St); Table 4a, 48 hours): > 50 µg/mL; IC90 ([3]; Table 4a, 48 hours): 2 µg/mL (≈ 3.26 µM); IC90 ([3]; Table 4b, 48 hours): 2 µg/mL (≈ 3.26 µM); IC90 ([4]; Table 4a, 48 hours): > 50 µg/mL; Concentration at 90% Inhibition Pc ([4]; Table 4b, 48 hours): D (“D” provided a compound concentration of >50 ppm at 90% inhibition of fungal pathogens); MIC (C. albicans ATCC 90028; [8]): > 4.1 µg/mL; MIC [5, 9]: > 4.1 µg/mL; MIC (C. krusei ATCC 6258; [10]): 2.1 to 4 µg/mL (≈ 3.42 to 6.52 µM)
